Here are results for two molecules from patent US20220030850A1, “CRYOPRESERVATIVE COMPOSITIONS AND METHODS” (REGENTS OF THE UNIVERSITY OF MINNESOTA, priority 2015, published 2022).

Experiment [1] deals with H9-MSCs. Description: Gene expression by qRT-PCR immediately post-thaw. It is filed as cell-based, human. To be noted: GAPDH internal control, FIG. 23. The procedure: Certain genes within select gene categories were analyzed using qRT-PCR. H9-MSCs subjected to different freezing approaches were assayed immediately post-thaw for the expression of genes related to trophic factor secretion such as HGF, VEGF, FGF2, CXCL12 (SDF-1α), mesodermal lineage markers TWIST1, TWIST2 (DERMO1), MSX2, the anti-apoptotic marker BCL2, surface markers for cell adhesion such as CD106 and CD54, the osmotic regulator marker GAL-1, and stress-response markers such as EGR1 and NFE2L2 (NRF2).
Pellets of thawed samples described above were resuspended in QIAZOL lysis agent (Qiagen, Hilden, Germany) for further RNA isolation and processing. […] The purified RNA was quantified using a NANODROP 2000 (Therm Fisher Scientific, Waltham, Mass.) device to determine concentration.
For qRT-PCR studies, 800 ng of RNA was used for reverse transcription to make cDNA using SuperScript III First-Strand Synthesis System (Thermo Fisher Scientific, Waltham, Mass.). cDNA was diluted to a concentration of 4 ng/μl and real-time qPCR was performed with 10 ng cDNA per 10 μl reaction with QuantiTect SYBR Green PCR Kit (Qiagen, Hilden, Germany) on CFX384 Real-Time PCR detection system (Bio-Rad Laboratories, Inc., Hercules, Calif.). […] were analyzed using the comparative CT method (Schmittgen et al., 2008. Nat Protoc 3:1101-1108) with GAPDH as an internal control gene.
(Real-time PCR tracks product formation cycle by cycle.)

Experiment [2] relates to Jurkat cells. Description: High throughput factorial screening with Linear Mixed Effects statistical analysis of recovery. It is filed as cell-based. The conditions noted are these: statistical analysis of sugar and cooling rate. The procedure:
(§1) In another evaluation, cells were combined with factorial combinations of the components listed in Table 5, using one component from each category. Plates including cells and solutions were frozen at cooling rates of 1′C/min, 3′C/min, 5′C/min, or 10′C/min.
(§2) Recovery was calculated by dividing the number of live cells post thaw—calculated using a control curve correlating calcein-acetoxymethyl (AM) fluorescence to cell count—by the number of live cells seeded pre-freeze (AO/PI counts taken prior to freezing). Recovery was normalized by dividing by the DMSO recovery on each plate, then multiplying by a standard DMSO recovery for each cooling rate. This normalized recovery was used to compare samples between different plates and different cooling rates.
(§3) Statistical analysis of the data was performed using a Linear Effects Model. The model associated with best fit was determined using Bayesian Information Criteria. […] The ten best combinations for Jurkats are summarized in Table 6 below, while the eight best combinations for MSCs are summarized in Table 7.
High throughput factorial screening experiments were performed on a Biomek Beckman FX 96 liquid handling robot. Briefly, 12.5 μl of an array of additives were transferred to nine 96-well plates containing 12.5 μl of different sugar alcohols. Cells (25 μl) diluted in either a sugar (in a solution of NORMOSOL-R; Hospira, Inc., Lake Forest, L) or a NORMOSOL-R blank solution were transferred to these nine plates to give a final volume of 50 μl in each well. Cells suspended in […] in media were also included as a row of each plate to serve as normalization wells for plate-to-plate comparison.
When all plate volume transfers were complete, silicone plate covers were used to seal each plate, and plates were transferred to a controlled rate freezer (Kryo 10 Series III, Planer PLC, Middlesex, United Kingdom) and frozen at cooling rates ranging from 1° C./min to 10° C./min. The concentrations of components present in solution are listed in Table 11, and were selected based on values described in literature or solubility limits. Component concentrations were 0 if not listed in a solution.
Plate samples were also assessed for viability using fluorescence. Briefly, a solution of calcein-AM/propidium iodide was prepared and a volume of 50 μl was added to each sample well of experimental 96-well plates, producing a 1:1 dilution. Plates were protected from light and placed in an incubator for 30 minutes to allow for calcein-AM digestion. A fluorescent plate reader (Synergy HT, BioTek Instruments, Inc., Winooski, Vt.) was used to determine the fluorescence in each well, which was correlated to live and dead cell counts using a control curve.
Viability was calculated for all samples by dividing the number of live cells by the number of total cells. Recovery was calculated directly by dividing the number of live cells post thaw by the number of live cells pre-freeze. Recovery for 96-well plate samples was further normalized; each experimental sample recovery was divided by the DMSO recovery on the same plate, and then multiplied by the standard DMSO recovery for the cooling rate of each experiment.
To assess the importance of the four explanatory variables of interest (Sugar, Rate, Additive and Alcohol), without neglecting the variation between each batch and between each plate within the batches, we sought to find the best Linear Mixed Effects (LME) model. […]

In experiment [3] the test system is MSCs. Described as above. It is filed as cell-based, human. To be noted: statistical analysis of sugar and cooling rate. On the procedure:
as §1, §2, §3
To assess the importance of the four explanatory variables of interest (Sugar, Rate, Additive and Alcohol), without neglecting the variation between each batch and between each plate within the batches, we sought to find the best Linear Mixed Effects (LME) model. With yi the i'th outcome of the response, Xi the corresponding values of the covariates, the LME model is defined as
To select the most fitting model, we performed backward elimination based on the Bayesian Information Criterion (BIC) starting with a model that includes all variables and second order interactions. Furthermore, we included two random variables, one to catch the effect of the batch, and one to catch the effect of each plate within the batch—i.e., the full model is: […]

As to `C[S+](C)[O-]` [DMSO, dimethyl sulfoxide], in experiment [1], the CXCL12 expression entry is “notable change” and the TWIST2 expression entry was “elevated”.
As to `OC[C@H]1O[C@@](CO)(O[C@H]2O[C@H](CO)[C@@H](O)[C@H](O)[C@H]2O)[C@@H](O)[C@@H]1O` [Sucrose], the “cooling rate at which cells performed better with the sugar” value in experiment [2] is 10 °C and 1° C./min; in experiment [3] it was 3 °C and 5° C./min.
